Source: patent US20180353443A1, “CURCUMIN-BASED COMPOSITIONS & METHODS OF USE THEREOF” (priority 2015, published 2018)

Experiments:
Type in all cases: cell-based
NFkB-p65 = assay: Western blot of cytoplasmic and nuclear NFkB-p65 (nucleotranslocation) in BV2 cells; settings: 22.0 μg/ml curcuminoid, LPS induction, FIGS. 4 and 5
Experimental: (§1) Western blot analysis was performed in multiple varying formats before optimization was achieved. The BV2 microglia cell line was cultured in Dulbecco's Modified Eagle's Medium (DMEM)—complete medium. The complete medium consisted of DMEM, 1% Ampicillin, and 10% Fetal Bovine Serum (FBS). BV2 microglia cells, at a cell count of approximately 2×10^6, were seeded in each well (6 wells per plate) with 2.0 ml complete medium and cultured overnight in a ThermaForma HepaFilter Series II Co2 Incubator at 37° Celsius. Upon establishing confluence, subconfluent cells were washed out and the wells were prepared with drug pre-treatment after overnight incubation.
(§2) The test drugs (curcuminoids) were procured as follows: curcumin I research standard (03926) (ChromaDex Irvine, Calif. USA) (97.7% purity); curcumin II research standard (04230) (ChromaDex Irvine, Calif. USA) (97.3%); curcumin III research standard (B6938) (Sigma-Aldrich St. Louis, Mo., USA) (97.7% purity); curcumin extract (curcumin I—77.7%, curcumin II—16.9%, curcumin III—0.9%) research standard (03928) (ChromaDex Irvine, Calif. USA) (95.3% purity); and Lipopolysaccharide (LPS) from E. Coli (L2630) (Sigma-Aldrich St. Louis, Mo., USA).
(§3) Curcuminoids are not soluble in aqueous medium due to their hydrophobic characteristic. However, curcuminoid extracts are soluble in polar organic solvents, such as DMSO and acetone. In this Example, each curcuminoid preparation was first dissolved in DMSO. DMSO was used in the drug preparation at 0.2%. The drug/DMSO solution was subsequently dissolved in DMEM to achieve a final drug concentration for each curcuminoid preparation tested—22.0 μg/ml curcuminoid. […]
(§4) Total protein concentration for each fraction was determined using a Bio Rad Protein Assay that is based on the Bradford Assay (dye-binding method). […]
(§5) The targets analyzed in the Western Blot included NFkB-p65 and its nucleocytoplasmic translocation, as well as kinases (including MSK1) and their covalent modifications upstream of and involved in the regulation of NFkB. […]

miRNA148a = assay: RT qPCR of miRNA148a levels in BV2 cells; settings: 22 μg/ml curcuminoid, 30 min pre-treatment, with or without LPS, FIG. 3
Experimental: Reverse transcriptase (RT) quantitative PCR (RT qPCR) was performed to measure miRNA 148a levels in cells that were treated with curcumin I, II, or III, or a control. More particularly, six-well plates were seeded with BV2 cells at a concentration of about 1.5×10^6 BV2 cells per well. Drug (curcumin I, II, or III) treatment was carried out in the same manner as was executed for the western blot experimentation described in Example 3 below. Ten wells were prepared and, upon confluence, the next day the drug treatment was designed to evaluate basal influence of curcumin extract, curcumin I, curcumin II, curcumin III, as well as each curcumin drug with LPS stimulation. After 30 minutes of incubation with the drug treatment, LPS was used to induce the cells in each well labelled to be induced by LPS.
RNA was ultimately extracted from the cells to determine the levels of miRNA148a. A Qiagen miRNeasy Mini Kit (Cat. No. 217004) was used to extract total RNA along with miRNA. The miRNA was reverse transcribed to cDNA using a gene-specific RT primer and the miScript II RT Kit by Qiagen (Cat. No. 218161). An miRNA148a primer assay was acquired from Qiagen (Cat. No. 00003556). […]

[1] = test system: NFkB-p65 serine 276 phosphorylation; assay: Western blot of NFkB-p65 phosphorylated at serine 276 in BV2 cells; settings: 22.0 μg/ml curcuminoid, LPS induction, FIGS. 6 and 7
Experimental: as §1, §2, §3, §4, §5

MSK1 = assay: Western blot of cytoplasmic and nuclear MSK1 protein levels in BV2 cells; settings: 22.0 μg/ml curcuminoid, LPS induction
Experimental: as §1, with “incubation. […]” for “incubation.”
as §4, §5

[2] = test system: MSK1 serine 376 phosphorylation; assay: Western blot of MSK1 phosphorylated at serine 376 in BV2 cells; settings: 22.0 μg/ml curcuminoid, LPS induction, FIGS. 10 and 11
Experimental: as §1, with “incubation. […]” for “incubation.”
as §4, §5

O=C(/C=C/c1ccc(O)cc1)CC(=O)/C=C/c1ccc(O)cc1 [curcumin III, (1E,6E)-1,7-bis(4-hydroxyphenyl)hepta-1,6-diene-3,5-dione] was tested, and the “inhibition of NFkB-p65 nucleotranslocation (cytosolic and nuclear NFkB-p65)” value (“inhibition … (cytosolic and nuclear NFkB-p65)” below) (NFkB-p65) was “not significantly inhibited”, the “effect on miRNA148a levels” value (miRNA148a) was “significantly increase” and the “inhibition of NFkB-p65 serine 276 phosphorylation” value [1] was “moderately inhibit”. For the same compound, the “effect on MSK1 protein levels in the cytoplasm” value (MSK1; FIG. 8) was “significantly inhibited and downregulated”, the “effect on MSK1 protein levels in the nucleus” value (MSK1; FIG. 9) was “significantly inhibited and downregulated” and the “inhibition of MSK1 serine 376 phosphorylation” value [2] was “inhibition”.
COc1cc(/C=C/C(=O)/C=C(O)/C=C/c2ccc(O)c(OC)c2)ccc1O [curcumin I, (1E,6E)-1,7-Bis(4-hydroxy-3-methoxyphenyl)-1,6-heptadiene-3,5-dione] was tested, and the “inhibition … (cytosolic and nuclear NFkB-p65)” value (NFkB-p65) was “not significantly inhibited” and the “inhibition of NFkB-p65 serine 276 phosphorylation” value [1] was “moderately inhibit”.
With COc1cc(/C=C/C(=O)CC(=O)/C=C/c2ccc(O)cc2)ccc1O [curcumin II, (1E,6E)-1-(4-Hydroxy-3-methoxyphenyl)-7-(4-hydroxyphenyl)hepta-1,6-diene-3,5-dione] the “inhibition … (cytosolic and nuclear NFkB-p65)” value (NFkB-p65) was “not significantly inhibited”, the “effect on miRNA148a levels” value (miRNA148a) was “inhibits” and the “inhibition of NFkB-p65 serine 276 phosphorylation” value [1] was “moderately inhibit”. The “inhibition of MSK1 serine 376 phosphorylation” value [2] was “inhibit”.
